In paper PMC4806784 (Investigational new drugs, 2015):

Tests used:
[1] = Safety and tolerability; format: in vivo
[2] = system: advanced and/or refractory solid tumors; experiment: Tumor response; format: in vivo, human
[3] = system: human tumor cell lines and xenograft models; conditions: subset of human tumor cell lines and xenograft models; cited from earlier work
[4] = Panel 2: MK-5108 CT with docetaxel 60 mg/m^2 (n = 17)
[5] = Panel 2: MK-5108 CT with docetaxel (N = 17)
[6] = Panel 2: (N = 17) MK-5108 CT with docetaxel

For `O=C(O)[C@]1(Cc2cccc(Nc3nccs3)n2)CC[C@@H](Oc2cccc(Cl)c2F)CC1` [MK-5108], which “patients with a Grade 3 or 4 drug-related AE” value ([1]; Panel 2 (CT), 12/17) is on record?
Its value is 70.6%.

What about the “AEs (all grades and doses) by SOC: Blood and lymphatic system disorders” value ([1]; Panel 2 (CT), 15/17) of the same compound?
Its value is 88.2%.

And the “AEs (all grades and doses) by SOC: General disorders and administration site conditions” value ([1]; Panel 2 (CT), 15/17)?
The value was 88.2%.

What about the Death [1, 4] of the same compound?
Its Death is 0 n (%).

What about the “Discontinued treatment due to a drug-related AE” value [1, 4] of the same compound?
The value was 1 (5.9) n (%).

What about the “Discontinued treatment due to a drug-related SAE” value [1, 4] of the same compound?
Its value is 1 (5.9) n (%).

And the “Discontinued treatment due to an SAE” value [1, 4]?
Its value is 2 (11.8) n (%).

What about the “Discontinued treatment due to any AE” value [1, 4] of the same compound?
The value was 2 (11.8) n (%).

And the “Patients with any AE” value [1, 4]?
The value was 17 (100.0) n (%).

What about the “Patients with drug-related AE” value [1, 4] of the same compound?
The value was 15 (88.2) n (%).

What about the “Patients with no AE” value [1, 4] of the same compound?
Its value is 0 n.

And the “Patients with serious AE” value [1, 4]?
Its value is 9 (52.9) n (%).

And the “Patients with serious drug-related AE” value [1, 4]?
Its value is 4 (23.5) n (%).

And the “Drug-related AEs by SOC: Blood and lymphatic system disorders” value [1, 5]?
Its value is 14 (82.4) n (%).

What about the “Drug-related AEs by SOC: Gastrointestinal disorders” value [1, 5] of the same compound?
The value was 11 (64.7) n (%).

And the “Drug-related AEs by SOC: General disorders and administration site conditions” value [1, 5]?
The value was 11 (64.7) n (%).

What about the “Drug-related AEs by SOC: Infections and infestations” value [1, 5] of the same compound?
The value was 4 (23.5) n (%).

What about the “Drug-related AEs by SOC: Investigations” value [1, 5] of the same compound?
The value was 5 (29.4) n (%).

And the “Drug-related AEs by SOC: Metabolism and nutrition disorders” value [1, 5]?
Its value is 9 (52.9) n (%).

And the “Drug-related AEs by SOC: Musculoskeletal and connective tissue disorders” value [1, 5]?
Its value is 5 (29.4) n (%).

What about the “Drug-related AEs by SOC: Nervous system disorders” value [1, 5] of the same compound?
Its value is 3 (17.6) n (%).

What about the “Drug-related AEs by SOC: Respiratory, thoracic and mediastinal disorders” value [1, 5] of the same compound?
The value was 5 (29.4) n (%).

And the “Drug-related AEs by SOC: Skin and subcutaneous tissue disorders” value [1, 5]?
Its value is 8 (47.1) n (%).

What about the “Drug-related AEs by SOC: Vascular disorders” value [1, 5] of the same compound?
The value was 2 (11.8) n (%).

What about the “Patients with drug-related AEs, highest grade: Grade 1” value [1, 5] of the same compound?
Its value is 0 (0.0) n (%).

And the “Patients with drug-related AEs, highest grade: Grade 2” value [1, 5]?
Its value is 3 (17.6) n (%).

And the “Patients with drug-related AEs, highest grade: Grade 3” value [1, 5]?
The value was 6 (35.3) n (%).

What about the “Patients with drug-related AEs, highest grade: Grade 4” value [1, 5] of the same compound?
Its value is 6 (35.3) n (%).

And the “Patients with no drug-related AEs” value [1, 5]?
Its value is 2 (11.8) n (%).

And the “Patients with one or more drug-related AEs” value [1, 5]?
The value was 15 (88.2) n (%).

And the “Drug-related AEs by SOC: Blood and lymphatic system disorders” value ([1]; Total (N = 35))?
The value was 20 (57.1) n (%).

And the “Drug-related AEs by SOC: Gastrointestinal disorders” value ([1]; Total (N = 35))?
Its value is 19 (54.3) n (%).

And the “Drug-related AEs by SOC: General disorders and administration site conditions” value ([1]; Total (N = 35))?
Its value is 20 (57.1) n (%).

And the “Drug-related AEs by SOC: Infections and infestations” value ([1]; Total (N = 35))?
The value was 4 (11.4) n (%).

What about the “Drug-related AEs by SOC: Investigations” value ([1]; Total (N = 35)) of the same compound?
The value was 8 (22.9) n (%).

And the “Drug-related AEs by SOC: Metabolism and nutrition disorders” value ([1]; Total (N = 35))?
Its value is 13 (37.1) n (%).

What about the “Drug-related AEs by SOC: Musculoskeletal and connective tissue disorders” value ([1]; Total (N = 35)) of the same compound?
The value was 7 (20.0) n (%).

And the “Drug-related AEs by SOC: Nervous system disorders” value ([1]; Total (N = 35))?
The value was 7 (20.0) n (%).

What about the “Drug-related AEs by SOC: Respiratory, thoracic and mediastinal disorders” value ([1]; Total (N = 35)) of the same compound?
Its value is 7 (20.0) n (%).

What about the “Drug-related AEs by SOC: Skin and subcutaneous tissue disorders” value ([1]; Total (N = 35)) of the same compound?
The value was 10 (28.6) n (%).

What about the “Drug-related AEs by SOC: Vascular disorders” value ([1]; Total (N = 35)) of the same compound?
The value was 2 (5.7) n (%).

What about the “Patients with drug-related AEs, highest grade: Grade 1” value ([1]; Total (N = 35)) of the same compound?
The value was 4 (11.4) n (%).

And the “Patients with drug-related AEs, highest grade: Grade 2” value ([1]; Total (N = 35))?
The value was 8 (22.9) n (%).

And the “Patients with drug-related AEs, highest grade: Grade 3” value ([1]; Total (N = 35))?
Its value is 7 (20.0) n (%).

And the “Patients with drug-related AEs, highest grade: Grade 4” value ([1]; Total (N = 35))?
The value was 7 (20.0) n (%).

And the “Patients with no drug-related AEs” value ([1]; Total (N = 35))?
Its value is 9 (25.7) n (%).

What about the “Patients with one or more drug-related AEs” value ([1]; Total (N = 35)) of the same compound?
The value was 26 (74.3) n (%).

What about the Partial Response ([2]; MK-5108 225 Q12hr (450 mg/day) CT, 1 patient) of the same compound?
Its Partial Response is 5.9%.

What about the stable disease ([2]; MK-5108 CT, 7 patients) of the same compound?
Its stable disease is 41.2%.

And the Progressive Disease ([2]; MK-5108 MT, 8 patients)?
Its Progressive Disease is 44.4%.

And the stable disease ([2]; MK-5108 MT, 9 patients)?
The stable disease was 50%.

And the “best response: stable disease (patients/evaluable)” value ([2]; Panel 1 (MT))?
Its value is 9/17.

What about the “median duration of stable disease” value ([2]; Panel 1 (MT)) of the same compound?
The value was 88 days.

And the “Partial Response” value ([2]; Panel 1: (N = 18) MK-5108 MT)?
The value was 0 (0.0) n (%).

And the “Progressive Disease” value ([2]; Panel 1: (N = 18) MK-5108 MT)?
The value was 8 (44.4) n (%).

What about the “Tumor response category: Discontinued due to AE” value ([2]; Panel 1: (N = 18) MK-5108 MT) of the same compound?
The value was 1 (5.6) n (%).

What about the “stable disease” value ([2]; Panel 1: (N = 18) MK-5108 MT) of the same compound?
The value was 9 (50.0) n (%).

And the “best response: SD (patients/evaluable)” value ([2]; Panel2 (CT))?
Its value is 7/16.

And the “median duration of stable disease” value ([2]; Panel2 (CT))?
Its value is 48 days.

And the “best response: PR (patients/evaluable)” value ([2]; Panel2 (CT), 450 mg/day)?
Its value is 1/16.

And the “Partial Response” value [2, 6]?
The value was 1 (5.9) n (%).

What about the “Progressive Disease” value [2, 6] of the same compound?
Its value is 8 (47.1) n (%).

And the “Tumor response category: Discontinued due to AE” value [2, 6]?
Its value is 1 (5.9) n (%).

And the “stable disease” value [2, 6]?
The value was 7 (41.2) n (%).

And the complete responses ([2]; either of the treatment panels)?
The complete responses was “no complete responses”.

And the single-agent activity [3]?
Its single-agent activity is “modest single-agent activity”.
